Assay results: paper PMC4535766, “Antiprotozoal Activity Profiling of Approved Drugs: A Starting Point toward Drug Repositioning” (PLoS ONE, 2015)
Counter-ions that a name gives are not always drawn. Like-named read-outs stand apart in the source and are kept apart here.

How the values were obtained:
[1] = system: T. b. rhodesiense strain STIB 900, trypomastigotes; assay: In vitro activity against T. b. rhodesiense, serial drug dilution assay
Protocol: (§1) Drug stock solutions (10mg/ml) were in DMSO (100%). […] Selectivity index (SI) was calculated as IC50 L6 cells/IC50 parasite.

[2] = system: P. falciparum strain K1; assay: In vitro activity against P. falciparum, serial drug dilution assay; conditions: for Activity against P. falciparum (in words): in vitro; for selectivity ratio: rat, Selectivity index: IC50 Cytotoxicity L6/ IC50 P. falciparum
Protocol: as §1

[3] = system: axenic amastigotes of L. donovani, strain MHOM-ET-67/L82; assay: In vitro activity against L. donovani axenic amastigotes, serial drug dilution assay; type: cell-based, Leishmania donovani
Protocol: as §1

[4] = system: intracellular amastigotes of L. donovani strain MHOM-ET-67/L82; assay: Activity against Leishmania donovani intracellular amastigotes in mouse peritoneal macrophages
Procedure, shortened: (§2)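 Axenic amastigotes grown at pH 5.4 infected mouse peritoneal macrophages for 4 h before free parasites were washed off. Next day, seven 3-fold drug dilutions (30–0.04 μg/ml) were added for 96 h. Giemsa-stained infected macrophages were counted, burden reduction was taken vs untreated controls, and IC50 came from linear regression.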

[5] = in vitro; conditions: rat
Protocol: as §1

[6] = system: T. cruzi, strain Tulahuen C4, intracellular amastigotes; assay: microbe, parasite or virus in culture
Protocol: as §1

[7] = In vitro cytotoxicity with mouse peritoneal macrophages (Alamar Blue); type: cell-based; conditions: mouse
Protocol: After 96 h of incubation, the plates were inspected under an inverted microscope to assure sterility. […] The IC50 values were calculated by linear regression from the sigmoidal dose inhibition curves using SoftmaxPro software (Molecular Devices Cooperation, Sunnyvale, CA, USA).

[8] = Cytotoxicity on macrophages infected with L. donovani; type: cell-based, mouse; conditions: mouse
Protocol: (§3) After 24 h 1.2 x 10^5 amastigote L. donovani in 100 μl were added. The amastigotes were taken from an axenic culture grown at pH 5.4. Four hours later, the medium containing free amastigote forms was removed and replaced by fresh medium. The next day the medium was replaced by medium with or without a serial drug dilution of seven 3-fold dilution steps covering a range from 30 to 0.04 μg/ml. Parasite growth in the presence of the drug was compared to control wells. After 96 h of incubation, the medium was removed and the slides fixed with methanol for 10 min followed by staining with a 10% Giemsa solution. Infected and non-infected macrophages were counted for the control cultures and those exposed to the serial drug dilutions. The infection rates were determined. The results were expressed as a percentage reduction in parasite burden compared to control wells, and the IC50 was calculated by linear regression analysis.

[9] = system: L. donovani strain MHOM-ET-67/L82 amastigotes; assay: in vitro; conditions: mouse, Selectivity index: IC50 Cytotoxicity macrophages/ IC50 L. donovani
Procedure, shortened: as §2

[10] = system: L6 cells; assay: Cytotoxicity on L6 cells
Protocol: as §1

[11] = system: macrophages infected with L. donovani; assay: Cytotoxicity on macrophages infected with L. donovani; type: cell-based, mouse
Protocol: as §3

[12] = Trypanosoma brucei, read-out: IC50 T. b. rhod.
[13] = Plasmodium falciparum, K1, read-out: IC50 P. falc. K1
[14] = Leishmania donovani, axenic amastigotes, strain MHOM-ET-67/L82, means of two independent assays, read-out: IC50 L. don. axen.
[15] = Leishmania donovani, Peritoneal macrophage, in Mus musculus, 96 h, read-out: IC50 L. don. intracell
[16] = Trypanosoma cruzi, TULAHUEN, read-out: IC50 T. cruzi
[17] = Trypanosoma brucei, read-out: T. b. rhod. IC50
[18] = L6 cells, IC50 Cytotox. L6, L6 cells, means of two independent assays
[19] = Trypanosoma cruzi, TULAHUEN, read-out: T. cruzi IC50
[20] = macrophages infected with L. donovani, read-out: IC50 Cytotox. mac.inf.
[21] = axenic amastigotes, strain MHOM-ET-67/L82, means of two independent assays, read-out: IC50 L. don. axen.
[22] = mouse peritoneal macrophages versus L. donovani amastigotes, axenic or intracellular IC50 not specified
[23] = read-out: IC50 T. b. rhod., strain STIB 900, trypomastigotes, means of two independent assays
[24] = read-out: IC50 P. falc. K1, strain K1, means of two independent assays
[25] = read-out: IC50 L. don. intracell, intracellular amastigotes in mouse peritoneal macrophages, strain MHOM-ET-67/L82, 96 h

| Molecule | IC50 [1, 12] | IC50 [2, 13] | Activity against P. falciparum (in words) [2] | selectivity ratio [2] | IC50 [3, 14] | IC50 [4, 15] | IC50 ([5]; IC50 Cytotox. L6) | IC50 [6, 16] | IC50 at 96 h [7] | IC50 [6, 19] | IC50 at 96 h [8, 20] | IC50 [3, 21] | further results |
| --- | --- | --- | --- | --- | --- | --- | --- | --- | --- | --- | --- | --- | --- |
| Clc1ccc(C(Cn2ccnc2)OCc2ccsc2Cl)c(Cl)c1 (stereo not shown) [Tioconazole] | 29.9 µM | 0.63 µM | active | 31 | 9.26 µM | 13.1 µM | 19.5 µM | 0.064 µM | 51.1 µM |  |  |  | Activity against L. donovani intracellular amastigotes (in words) [4]: active with low selectivity |
| Clc1ccc(COC(Cn2ccnc2)c2ccc(Cl)cc2Cl)c(Cl)c1 (stereo not shown) [Miconazole (Nitrate salt), Miconazole] |  |  | active |  |  |  | 15.4 µM |  | 23.9 µM |  |  |  |  |
| Clc1ccc(COC(Cn2ccnc2)c2ccc(Cl)cc2Cl)cc1 (stereo not shown) [Econazole (Nitrate salt), Econazole] |  |  | active |  |  |  | 15.6 µM |  | 22.8 µM |  |  |  |  |
| CCN(CC)CCCCCCNc1cc(OC)cc2c(C)ccnc12 [Sitamaquine] |  | 0.08 µM |  | 404 |  |  |  |  | 21.4 µM | 22 µM |  |  | IC50 at 96 h ([8]; mouse peritoneal macrophages infected with L. donovani, infected macrophages, read-out: Cytotox. mac.inf. IC50): > 29.1 µM; IC50 [1, 17]: 7.39 µM; Activity against L. donovani axenic amastigotes (in words) [3]: moderate activity; IC50 ([3]; Leishmania donovani, L. donovani axenic amastigotes, read-out: L. don. axen. IC50): 13.7 µM; Activity against L. donovani intracellular amastigotes (in words) [4]: moderate activity; IC50 ([4]; Leishmania donovani, Peritoneal macrophage, in Mus musculus, read-out: L. don. intracell IC50): 19.5 µM; IC50 [5, 18]: 32.3 µM |
| CC(C)/N=c1\cc2n(-c3ccc(Cl)cc3)c3ccccc3nc-2cc1Nc1ccc(Cl)cc1 [Clofazimine] |  |  |  |  | 22.4 µM | 0.95 µM |  |  | 10.7 µM | 38.2 µM | 6.34 µM |  | IC50 [1, 17]: 7.63 µM; IC50 ([2]; Plasmodium falciparum, K1, read-out: P. falc. IC50): 4.1 µM; selectivity ratio at 96 h [9]: ~10; IC50 ([5]; Cytotox. L6 IC50): 9.97 µM |
| CO[C@H]1/C=C/O[C@@]2(C)Oc3c(C)c(O)c4c(O)c(cc(O)c4c3C2=O)NC(=O)/C(C)=C\C=C\[C@H](C)[C@H](O)[C@@H](C)[C@@H](O)[C@@H](C)[C@H](OC(C)=O)[C@@H]1C [Rifamycin SV (Sodium salt), Rifamycin SV] | 0.99 µM | 0.55 µM |  | 29 | < 3 µM | > 13.9 µM | 15.7 µM |  |  | 50 µM | 41.6 µM | 1.5 µM | selectivity ratio ([1]; rat, L6 cells versus T. b. rhodesiense STIB 900 trypomastigotes): 16; selectivity ratio at 96 h [9, 22]: 28 |
| Bacitracine |  |  |  |  |  |  |  |  |  |  |  | > 70.3 µM | IC50 [1, 23]: > 70.3 µM; IC50 [2, 24]: 19.8 µM; IC50 [4, 25]: > 21.1 µM; IC50 ([6]; read-out: IC50 T. cruzi, strain Tulahuen C4, intracellular amastigotes, means of two independent assays): 47.1 µM; IC50 ([10]; read-out: IC50 Cytotox. L6, L6 cells, means of two independent assays): 42.2 µM |
| NNC(=O)c1ccncc1 [Izoniazide] |  |  |  |  |  |  |  |  |  |  |  | > 656 µM | IC50 [11]: > 219 µM; IC50 [1, 23]: > 656 µM; IC50 [2, 24]: > 36.5 µM; IC50 [4, 25]: > 219 µM; IC50 [10]: > 656 µM |
| CCC[C@@]1(CCc2ccccc2)CC(O)=C([C@H](CC)c2cccc(NS(=O)(=O)c3ccc(C(F)(F)F)cn3)c2)C(=O)O1 [Tipranavir] | 26.4 µM | 44.6 µM |  |  | < 3 µM | > 49.8 µM |  | 28.2 µM |  |  |  | 1.64 µM | IC50 at 96 h ([8]; mouse peritoneal macrophages infected with L. donovani, macrophages infected with L. donovani, read-out: IC50 Cytotox. mac.inf.): > 50 µM; IC50 [11, 20]: > 49.8 µM; selectivity ratio at 96 h [9]: > 30; IC50 [5, 18]: 53.4 µM |
| Cc1cc(C2CCCCC2)n(O)c(=O)c1 [Ciclopirox olamine] | 0.8 µM | 3.75 µM |  |  | 1.64 µM | 9.09 µM | 1.04 µM | 2.49 µM | 20.3 µM |  | 20.3 µM |  | IC50 [11, 20]: > 11.2 µM; selectivity ratio at 96 h [9, 22]: 9 |
